In patent US20050084484A1, “Reduction of oxidative stress factors” (Probi AB, priority 1999, published 2005):

Columns and labels:
[1] = system: monocytes and lymphocytes; assay: Effect of ibuprofen on ROS production, comparative study; format: in vivo, human; settings: ibuprofen 500 mg/d for 3 weeks, six healthy volunteers; preliminary data; compared with Lactobacillus plantarum 299v
Description: The measurement of cell oxidation is based on reactive oxygen species (ROS) mediated conversion of nonfluorescent 2,7′-dichlorofluorescein (DCFH), loaded into cells as 2,7′-dichlorofluorescein diacetate, into fluorescent DCF with increased fluorescence emission reflecting enhanced oxidative stress. Freshly isolated PBMC, consisting of approximatively 30% monocytes and 70% lymphocytes, were resuspended in phosphate buffered saline (PBS) followed by incubation with 20 μM […] at 37° C. for 30 min in the dark. The cells were then washed with PBS. The relative fluorescence intensity of the fluorophore 2′,7-dichlorofluorescein, which is formed by peroxide oxidation of its nonfluorescent precursor, was detected with cytofluorimetric assay (FACScan, Becton Dickinson). During flow cytometric analysis monocytes and lymphocytes were gated on the basis of forward scater (FCS) and side scater (SCC). The results are expressed as mean fluorescence intensity […].
In order to investigate the mechanisms behind the reduction of ROS by ibuprofen, a propionic acid derivative and a well-known antiinflammatory drug, ibuprofen was administered in an amount of 500 mg/d to the same group of six healthy volunteers as participated in the study described in Test 1 for 3 weeks.

[2] = system: Human monocyte macrophage cells; assay: Propionic acid induced reduction of oxidative stress (8-Isoprostane EIA); format: cell-based; settings: 10 μM propionic acid 4 h, then LPS 1.0 ng/ml 24 h; versus control cells; mean of 3 experiments
Description: Human monocyte macrophage cells were isolated as described above and 6 million cells were preincubated in 2 ml of RPMI-1640 medium (10% fetalcalf serum, […] of penicillin/streptomycin, 2 mM glutamine) in dishes having a diameter of […]. 10 μM propionic acid was then added and the cells were incubated at 37° C. for 4 h. The medium was subsequently removed and replaced with fresh medium and the cells were stimulated with LPS (lipopolysaccharide), 1.0 ng/ml medium, in order to provoke prooxidant stress. After 24 h the medium was removed and concentrated 10 times by evaporation. Oxidative stress with and without (control cells) propionic acid was evaluated using the 8-Isoprostane EIA kit from Cayman Chemical.
The reduction of oxidative stress expressed as the mean value from 3 experiments of the decrease in the 8-isoprostane level was 47%.

| Structure (SMILES) | ROS response of monocytes and lymphocytes [1] | Reduction of oxidative stress, decrease in the 8-isoprostane level [2] |
| --- | --- | --- |
| CC(C)Cc1ccc(C(C)C(=O)O)cc1 (centres unmarked) [ibuprofen] | respond in exactly the same way |  |
| CCC(=O)O [propionic acid] |  | 47% |
